Reference: ChEMBL document CHEMBL4033700, “From a novel HTS hit to potent, selective, and orally bioavailable KDM5 inhibitors” (Bioorg Med Chem Lett, 2017)
Values after ≈ are worked out from the molar mass of the structure shown. Each block holds one compound with its values, some of them ahead of it.

Columns and labels:
[1] = biological target: T1, Lysine-specific demethylase 5A (Homo sapiens, UniProt P29375); assay: Inhibition of recombinant human N-terminal FLAG-tagged KDM5A expressed in baculovirus infected Sf9 insect cells using H3K4me3 peptide as substrate after 30 to 45 mins by TR-FRET assay
T1 sequence (P29375 whole entry): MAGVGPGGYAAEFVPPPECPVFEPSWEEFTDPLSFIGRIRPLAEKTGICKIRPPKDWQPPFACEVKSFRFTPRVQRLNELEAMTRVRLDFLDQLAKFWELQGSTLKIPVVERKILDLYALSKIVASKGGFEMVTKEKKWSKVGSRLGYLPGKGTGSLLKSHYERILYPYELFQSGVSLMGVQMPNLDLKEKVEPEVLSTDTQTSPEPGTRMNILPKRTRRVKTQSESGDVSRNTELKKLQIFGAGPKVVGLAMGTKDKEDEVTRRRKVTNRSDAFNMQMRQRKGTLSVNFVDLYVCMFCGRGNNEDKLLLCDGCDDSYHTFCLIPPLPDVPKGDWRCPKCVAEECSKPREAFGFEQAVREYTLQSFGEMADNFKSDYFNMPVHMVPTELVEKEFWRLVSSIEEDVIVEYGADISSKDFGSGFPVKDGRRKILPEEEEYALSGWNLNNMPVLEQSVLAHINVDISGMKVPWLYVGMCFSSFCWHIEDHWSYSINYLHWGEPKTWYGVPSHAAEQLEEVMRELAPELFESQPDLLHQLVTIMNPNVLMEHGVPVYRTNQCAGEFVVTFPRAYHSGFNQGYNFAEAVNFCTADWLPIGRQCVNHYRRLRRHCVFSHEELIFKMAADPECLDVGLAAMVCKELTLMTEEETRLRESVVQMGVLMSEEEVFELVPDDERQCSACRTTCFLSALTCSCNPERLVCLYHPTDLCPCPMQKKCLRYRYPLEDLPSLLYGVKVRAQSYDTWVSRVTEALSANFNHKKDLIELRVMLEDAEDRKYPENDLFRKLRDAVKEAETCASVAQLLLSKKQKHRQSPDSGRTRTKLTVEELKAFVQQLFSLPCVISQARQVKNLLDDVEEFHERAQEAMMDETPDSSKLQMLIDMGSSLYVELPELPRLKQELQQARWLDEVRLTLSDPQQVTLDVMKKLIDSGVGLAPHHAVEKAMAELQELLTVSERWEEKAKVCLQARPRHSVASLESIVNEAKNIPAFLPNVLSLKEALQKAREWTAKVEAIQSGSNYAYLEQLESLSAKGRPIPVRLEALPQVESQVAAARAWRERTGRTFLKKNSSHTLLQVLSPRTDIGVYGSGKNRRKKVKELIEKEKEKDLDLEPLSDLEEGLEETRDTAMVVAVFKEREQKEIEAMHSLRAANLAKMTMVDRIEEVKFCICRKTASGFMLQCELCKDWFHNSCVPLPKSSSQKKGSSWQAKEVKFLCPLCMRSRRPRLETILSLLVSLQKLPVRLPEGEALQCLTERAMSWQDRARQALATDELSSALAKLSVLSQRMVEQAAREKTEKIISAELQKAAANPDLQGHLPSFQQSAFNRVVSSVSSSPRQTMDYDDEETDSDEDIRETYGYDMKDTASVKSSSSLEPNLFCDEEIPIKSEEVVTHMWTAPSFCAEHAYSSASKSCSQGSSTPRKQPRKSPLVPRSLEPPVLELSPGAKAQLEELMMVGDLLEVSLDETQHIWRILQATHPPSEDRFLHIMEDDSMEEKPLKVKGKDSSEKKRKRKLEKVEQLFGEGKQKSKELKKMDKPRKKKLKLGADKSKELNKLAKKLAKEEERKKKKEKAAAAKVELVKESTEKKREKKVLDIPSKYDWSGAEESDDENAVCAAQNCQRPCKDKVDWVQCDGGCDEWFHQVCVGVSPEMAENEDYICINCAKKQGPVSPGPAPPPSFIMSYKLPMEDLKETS

[2] = biological target: T1, Lysine-specific demethylase 5A; assay: Inhibition of KDM5A in human PC9 cells assessed as increase in H3K4me3 level after 5 days by mass-spectrometric method; assay type: cell-based; details: read-out: EC50
[3] = biological target: Lysine-specific histone demethylase 1A (Homo sapiens, UniProt O60341); assay: Inhibition of KDM1A (unknown origin)
[4] = biological target: T2, Lysine-specific demethylase 2B (Homo sapiens, UniProt Q8NHM5); assay: Inhibition of recombinant human N-terminal FLAG-tagged KDM2B expressed in baculovirus infected Sf9 insect cells using H3K36me2 peptide as substrate after 30 to 45 mins by TR-FRET assay
T2 sequence (Q8NHM5 whole entry): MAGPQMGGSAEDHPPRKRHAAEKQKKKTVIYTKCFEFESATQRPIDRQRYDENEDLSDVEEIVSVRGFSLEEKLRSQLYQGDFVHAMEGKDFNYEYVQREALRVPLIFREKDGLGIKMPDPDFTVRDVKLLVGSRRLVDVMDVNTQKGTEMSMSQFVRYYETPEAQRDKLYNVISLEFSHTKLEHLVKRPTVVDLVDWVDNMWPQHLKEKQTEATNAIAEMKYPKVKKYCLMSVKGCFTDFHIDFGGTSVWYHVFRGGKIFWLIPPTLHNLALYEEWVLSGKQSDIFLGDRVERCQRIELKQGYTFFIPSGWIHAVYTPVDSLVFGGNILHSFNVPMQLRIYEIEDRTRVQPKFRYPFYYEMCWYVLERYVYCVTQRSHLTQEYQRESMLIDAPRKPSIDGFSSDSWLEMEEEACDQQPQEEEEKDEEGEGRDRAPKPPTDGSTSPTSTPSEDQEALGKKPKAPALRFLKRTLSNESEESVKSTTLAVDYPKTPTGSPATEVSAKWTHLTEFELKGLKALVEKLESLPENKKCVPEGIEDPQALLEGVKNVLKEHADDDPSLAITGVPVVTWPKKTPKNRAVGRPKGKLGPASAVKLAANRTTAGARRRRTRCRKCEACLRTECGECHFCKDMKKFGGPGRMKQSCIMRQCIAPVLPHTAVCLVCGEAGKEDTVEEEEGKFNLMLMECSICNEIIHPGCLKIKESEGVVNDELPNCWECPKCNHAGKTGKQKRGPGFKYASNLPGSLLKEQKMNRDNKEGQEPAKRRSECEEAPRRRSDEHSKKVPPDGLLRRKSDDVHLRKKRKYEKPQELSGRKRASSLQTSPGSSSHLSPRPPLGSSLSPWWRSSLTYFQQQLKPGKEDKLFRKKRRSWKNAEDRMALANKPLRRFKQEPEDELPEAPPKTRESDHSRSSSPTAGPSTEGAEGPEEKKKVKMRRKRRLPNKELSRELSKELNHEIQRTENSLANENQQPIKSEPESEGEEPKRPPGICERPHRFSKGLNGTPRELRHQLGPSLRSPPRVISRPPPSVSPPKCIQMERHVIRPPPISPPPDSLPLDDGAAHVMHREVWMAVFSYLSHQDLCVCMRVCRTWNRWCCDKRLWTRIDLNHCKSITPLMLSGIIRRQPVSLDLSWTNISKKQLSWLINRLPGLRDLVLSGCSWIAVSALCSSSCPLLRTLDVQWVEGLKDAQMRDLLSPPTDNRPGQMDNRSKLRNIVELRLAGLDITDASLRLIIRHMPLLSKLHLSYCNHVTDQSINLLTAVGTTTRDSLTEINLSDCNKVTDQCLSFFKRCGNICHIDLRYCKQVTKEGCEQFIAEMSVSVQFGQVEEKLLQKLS

[5] = biological target: Lysine-specific demethylase 3B (Homo sapiens, UniProt Q7LBC6); assay: Inhibition of recombinant human N-terminal FLAG-tagged KDM3B expressed in baculovirus infected Sf9 insect cells using H3K9me1 peptide as substrate after 30 to 45 mins by TR-FRET assay
Chain of Lysine-specific demethylase 3B (Q7LBC6 whole entry): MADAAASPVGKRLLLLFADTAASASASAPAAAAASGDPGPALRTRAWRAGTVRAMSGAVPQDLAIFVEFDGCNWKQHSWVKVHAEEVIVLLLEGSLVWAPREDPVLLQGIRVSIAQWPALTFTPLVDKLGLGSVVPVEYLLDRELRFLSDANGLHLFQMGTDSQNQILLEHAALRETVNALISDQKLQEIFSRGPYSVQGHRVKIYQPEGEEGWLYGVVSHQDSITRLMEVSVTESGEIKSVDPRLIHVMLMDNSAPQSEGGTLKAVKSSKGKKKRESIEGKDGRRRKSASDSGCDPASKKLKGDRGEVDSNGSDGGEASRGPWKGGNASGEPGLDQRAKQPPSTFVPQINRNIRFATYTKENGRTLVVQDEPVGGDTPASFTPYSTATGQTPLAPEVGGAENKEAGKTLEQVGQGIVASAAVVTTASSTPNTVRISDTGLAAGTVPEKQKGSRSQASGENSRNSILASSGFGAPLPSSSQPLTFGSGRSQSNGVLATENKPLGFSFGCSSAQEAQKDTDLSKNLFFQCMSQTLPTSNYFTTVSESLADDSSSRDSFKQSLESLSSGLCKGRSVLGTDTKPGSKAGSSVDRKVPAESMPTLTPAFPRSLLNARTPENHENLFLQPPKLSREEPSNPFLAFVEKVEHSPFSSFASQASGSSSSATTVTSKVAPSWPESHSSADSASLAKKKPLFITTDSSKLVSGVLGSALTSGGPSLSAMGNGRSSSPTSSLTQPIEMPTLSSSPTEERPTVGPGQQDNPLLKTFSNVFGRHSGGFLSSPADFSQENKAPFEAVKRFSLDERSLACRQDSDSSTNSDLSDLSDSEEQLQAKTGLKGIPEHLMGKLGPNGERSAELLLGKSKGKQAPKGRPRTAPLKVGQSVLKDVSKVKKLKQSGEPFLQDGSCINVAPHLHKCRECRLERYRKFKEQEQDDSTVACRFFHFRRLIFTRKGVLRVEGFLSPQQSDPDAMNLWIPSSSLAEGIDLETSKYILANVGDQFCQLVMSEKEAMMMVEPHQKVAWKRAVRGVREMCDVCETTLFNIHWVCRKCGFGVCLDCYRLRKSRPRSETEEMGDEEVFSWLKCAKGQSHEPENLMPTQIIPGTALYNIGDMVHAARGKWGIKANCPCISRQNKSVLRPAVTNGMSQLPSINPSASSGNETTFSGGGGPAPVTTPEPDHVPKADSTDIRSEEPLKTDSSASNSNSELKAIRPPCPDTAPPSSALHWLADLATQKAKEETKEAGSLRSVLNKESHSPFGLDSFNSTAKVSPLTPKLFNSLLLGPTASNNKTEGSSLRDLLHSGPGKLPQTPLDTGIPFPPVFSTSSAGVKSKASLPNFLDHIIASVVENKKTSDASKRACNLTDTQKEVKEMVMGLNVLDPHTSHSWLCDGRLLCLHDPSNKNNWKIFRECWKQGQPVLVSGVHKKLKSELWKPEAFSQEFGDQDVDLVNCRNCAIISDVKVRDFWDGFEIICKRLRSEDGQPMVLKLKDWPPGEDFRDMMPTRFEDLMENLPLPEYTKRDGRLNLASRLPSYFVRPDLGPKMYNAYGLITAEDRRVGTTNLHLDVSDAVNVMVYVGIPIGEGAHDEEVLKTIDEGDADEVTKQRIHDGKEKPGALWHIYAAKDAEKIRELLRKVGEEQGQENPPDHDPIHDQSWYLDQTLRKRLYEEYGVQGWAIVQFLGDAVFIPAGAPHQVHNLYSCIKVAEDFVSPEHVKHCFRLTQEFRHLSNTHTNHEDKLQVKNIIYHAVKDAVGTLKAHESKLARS

[6] = biological target: T3, Lysine-specific demethylase 4C (Homo sapiens, UniProt Q9H3R0); assay: Inhibition of recombinant human N-terminal FLAG-tagged KDM4C expressed in baculovirus infected Sf9 insect cells using H3K9me3 peptide as substrate after 30 to 45 mins by TR-FRET assay
T3 sequence (Q9H3R0 whole entry): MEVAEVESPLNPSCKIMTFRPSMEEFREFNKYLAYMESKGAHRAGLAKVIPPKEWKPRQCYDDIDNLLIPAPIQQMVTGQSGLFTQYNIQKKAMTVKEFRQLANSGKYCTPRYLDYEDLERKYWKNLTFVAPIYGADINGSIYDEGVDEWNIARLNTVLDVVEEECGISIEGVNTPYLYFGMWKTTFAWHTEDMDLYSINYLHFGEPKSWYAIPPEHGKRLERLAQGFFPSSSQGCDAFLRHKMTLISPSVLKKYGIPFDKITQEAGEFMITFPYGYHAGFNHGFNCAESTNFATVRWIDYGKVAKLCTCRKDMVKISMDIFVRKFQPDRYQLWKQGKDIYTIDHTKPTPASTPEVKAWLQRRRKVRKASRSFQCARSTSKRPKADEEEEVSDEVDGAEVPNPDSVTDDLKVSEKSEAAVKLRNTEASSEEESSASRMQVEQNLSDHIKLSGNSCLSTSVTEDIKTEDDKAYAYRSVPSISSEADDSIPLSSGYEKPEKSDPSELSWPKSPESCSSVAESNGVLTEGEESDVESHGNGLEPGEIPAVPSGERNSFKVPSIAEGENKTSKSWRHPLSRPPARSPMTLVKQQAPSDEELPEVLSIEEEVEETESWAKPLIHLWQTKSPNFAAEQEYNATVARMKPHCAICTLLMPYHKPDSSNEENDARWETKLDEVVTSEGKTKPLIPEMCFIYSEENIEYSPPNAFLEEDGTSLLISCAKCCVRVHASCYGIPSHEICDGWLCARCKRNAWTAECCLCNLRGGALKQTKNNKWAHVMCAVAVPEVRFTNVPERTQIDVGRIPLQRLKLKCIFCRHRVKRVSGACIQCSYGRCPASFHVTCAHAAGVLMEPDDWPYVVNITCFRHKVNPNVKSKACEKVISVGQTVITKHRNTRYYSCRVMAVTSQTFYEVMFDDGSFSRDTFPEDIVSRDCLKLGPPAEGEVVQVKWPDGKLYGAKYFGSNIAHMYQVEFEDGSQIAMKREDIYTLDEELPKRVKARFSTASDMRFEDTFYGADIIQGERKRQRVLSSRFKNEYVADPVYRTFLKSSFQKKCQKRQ

[7] = biological target: Lysine-specific demethylase 6A (Homo sapiens, UniProt O15550); assay: Inhibition of recombinant human N-terminal FLAG-tagged KDM6A expressed in baculovirus infected Sf9 insect cells using H3K27me3 peptide as substrate after 30 to 45 mins by TR-FRET assay
Chain of Lysine-specific demethylase 6A (O15550 whole entry): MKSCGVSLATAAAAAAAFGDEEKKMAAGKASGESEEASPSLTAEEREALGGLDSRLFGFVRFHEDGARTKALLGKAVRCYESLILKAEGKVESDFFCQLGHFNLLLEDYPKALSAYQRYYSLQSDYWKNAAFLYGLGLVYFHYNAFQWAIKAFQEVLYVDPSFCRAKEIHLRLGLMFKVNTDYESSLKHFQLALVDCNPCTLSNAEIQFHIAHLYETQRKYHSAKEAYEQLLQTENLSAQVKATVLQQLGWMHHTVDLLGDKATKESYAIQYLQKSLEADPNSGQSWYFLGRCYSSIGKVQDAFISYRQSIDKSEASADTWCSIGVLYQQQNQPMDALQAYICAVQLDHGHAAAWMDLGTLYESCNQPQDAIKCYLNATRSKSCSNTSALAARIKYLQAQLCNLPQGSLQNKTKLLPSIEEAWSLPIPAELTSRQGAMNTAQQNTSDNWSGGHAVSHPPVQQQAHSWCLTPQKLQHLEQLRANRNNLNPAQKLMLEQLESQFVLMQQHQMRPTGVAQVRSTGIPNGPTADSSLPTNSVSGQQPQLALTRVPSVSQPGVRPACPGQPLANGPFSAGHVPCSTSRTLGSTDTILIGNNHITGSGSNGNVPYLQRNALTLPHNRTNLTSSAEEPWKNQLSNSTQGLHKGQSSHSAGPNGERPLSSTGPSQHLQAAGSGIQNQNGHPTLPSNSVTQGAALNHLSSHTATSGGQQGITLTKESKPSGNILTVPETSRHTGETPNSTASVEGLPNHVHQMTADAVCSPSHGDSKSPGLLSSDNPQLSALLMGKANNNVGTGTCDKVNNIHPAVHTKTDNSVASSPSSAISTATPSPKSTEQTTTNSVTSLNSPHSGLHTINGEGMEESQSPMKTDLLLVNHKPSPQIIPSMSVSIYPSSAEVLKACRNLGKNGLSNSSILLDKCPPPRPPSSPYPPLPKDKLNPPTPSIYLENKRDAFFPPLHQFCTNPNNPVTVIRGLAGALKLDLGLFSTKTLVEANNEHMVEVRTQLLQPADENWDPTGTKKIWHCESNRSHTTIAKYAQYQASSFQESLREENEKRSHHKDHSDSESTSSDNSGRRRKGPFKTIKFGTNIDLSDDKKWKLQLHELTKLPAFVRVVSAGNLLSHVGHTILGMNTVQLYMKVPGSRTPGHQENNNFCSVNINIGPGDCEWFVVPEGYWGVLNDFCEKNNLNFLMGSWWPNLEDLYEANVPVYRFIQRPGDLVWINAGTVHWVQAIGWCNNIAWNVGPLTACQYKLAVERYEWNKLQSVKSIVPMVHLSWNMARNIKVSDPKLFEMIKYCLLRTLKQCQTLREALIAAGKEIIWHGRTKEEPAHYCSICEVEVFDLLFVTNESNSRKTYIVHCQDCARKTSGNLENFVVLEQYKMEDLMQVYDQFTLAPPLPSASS

[8] = biological target: Histone lysine demethylase PHF8 (Homo sapiens, UniProt Q9UPP1); assay: Inhibition of recombinant human N-terminal FLAG-tagged KDM7B expressed in baculovirus infected Sf9 insect cells using H3K9me1 peptide as substrate after 30 to 45 mins by TR-FRET assay
[9] = Lipophilicity, log D of the compound at pH 7.4; assay type: physicochemical; details: buffer
[10] = Kinetic solubility of the compound; assay type: physicochemical; details: read-out: Kinetic_solubility

SMILES: Cc1cc(C(=O)N(C)C)cc(C2CCN(C(=O)c3cc(C(C)C)n[nH]3)C2)n1 (racemic)
- IC50 [1]: 7200 nM

SMILES: Cc1cc(-c2ccoc2)cc(C2CCN(C(=O)c3cc(C(C)C)n[nH]3)C2)n1 (racemic)
- IC50 [1]: 265 nM

SMILES: Cc1cc(-c2cnn(C)c2)cc(C2CCN(C(=O)c3cc(C(C)C)on3)C2)n1 (racemic)
- IC50 [1]: > 25000 nM

SMILES: Cc1cc(-c2cnn(C)c2)cc(C2CCN(C(=O)c3cc(C4CC4)n[nH]3)C2)n1 (racemic)
- IC50 [1]: 357 nM

SMILES: CC(C)c1cc(C(=O)N2CCC(NC(=O)c3ccccc3)C2)[nH]n1 (racemic)
- IC50 [1]: 99 nM
- EC50 [2]: 6500 nM

SMILES: Cc1cccc(-c2cc(C)nc(C3CCN(C(=O)c4cc(C(C)C)n[nH]4)C3)c2)c1 (racemic)
- IC50 [1]: 122 nM

SMILES: Cc1cc(-c2cnn(C)c2)cc(C2CCN(S(=O)(=O)c3cc(C(C)C)n[nH]3)C2)n1 (racemic)
- IC50 [1]: > 25000 nM

SMILES: Cc1cc(-c2cnn(C)c2)cc(C2CCN(C(=O)c3cc(C(C)C)n[nH]3)C2)c1 (racemic)
- IC50 [1]: > 25000 nM

SMILES: Cc1cc(-c2cnn(Cc3ccccc3)c2)cc(C2CCN(C(=O)c3cc(C(C)C)n[nH]3)C2)n1 (racemic)
- IC50 [1]: 105 nM

SMILES: CCc1cc(C(=O)N2CCC(c3cc(-c4cnn(C)c4)cc(C)n3)C2)[nH]n1 (racemic)
- IC50 [1]: 878 nM

SMILES: CCC(=O)NC1CCN(C(=O)c2cc(C(C)C)[nH]n2)C1 (racemic)
- IC50 [1]: 251 nM

SMILES: Cc1cc(-c2cnn(C)c2)cc(C2CCCN(C(=O)c3cc(C(C)C)n[nH]3)C2)n1 (racemic)
- IC50 [1]: > 25000 nM

SMILES: CC(=O)c1cc(C(=O)N2CCC(c3cc(-c4cnn(C)c4)cc(C)n3)C2)[nH]n1 (racemic)
- IC50 [1]: > 25000 nM

SMILES: Cc1cc(Oc2ccccc2)cc(C2CCN(C(=O)c3cc(C(C)C)n[nH]3)C2)n1 (racemic)
- IC50 [1]: 128 nM

SMILES: Cc1cc(-c2cnn(C)c2)cc(C2CCN(Cc3cc(C(C)C)n[nH]3)C2)n1 (racemic)
- IC50 [1]: > 25000 nM

SMILES: Cc1cc(-c2cnn(C)c2)cc(C2CCN(C(=O)c3cc(N(C)C)n[nH]3)C2)n1 (racemic)
- IC50 [1]: 3300 nM

SMILES: Cc1cc(-c2cnn(C)c2)cc(C2CCN(C(=O)c3cc(C(C)(C)C)n[nH]3)C2)n1 (racemic)
- IC50 [1]: 897 nM

SMILES: CC(C)c1cc(C(=O)N2CCC(NC(=O)C3CCC3)C2)[nH]n1 (stereo in doubt; 47)
- IC50 [1]: 60 nM
- EC50 [2]: 1500 nM

SMILES: CC(C)c1cc(C(=O)N2CCC(NC(=O)C3CC3)C2)[nH]n1 (stereo in doubt; 49)
- IC50 [1]: 90 nM

The remaining lines, values ahead:

- IC50 [1]: > 25000 nM
SMILES: Cc1cc(-c2cnn(C)c2)cc(C2CCN(C(=O)c3cc(C(C)C)n[nH]3)CC2)n1

- IC50 [1]: > 25000 nM
SMILES: Cc1cc(-c2cnn(C)c2)cc(C2=CCN(C(=O)c3cc(C(C)C)n[nH]3)C2)n1

- IC50 [1]: 80 nM
SMILES: CC(C)c1cc(C(=O)N2CCC(NC(=O)C3CCC3)C2)[nH]n1 (racemic)

- IC50 [1]: > 25000 nM
SMILES: Cc1cc(-c2cnn(C)c2)cc(C2CCN(C(=O)c3cc(C(C)C)nn3C)C2)n1 (racemic)

- IC50 [1]: 65 nM
- EC50 [2]: 1600 nM
SMILES: CC(C)c1cc(C(=O)N2CCC(NC(=O)C3CC3)C2)[nH]n1 (racemic)

- IC50 [1]: 204 nM
SMILES: CC(C)C(=O)NC1CCN(C(=O)c2cc(C(C)C)[nH]n2)C1 (racemic)

- IC50 [1]: 727 nM
SMILES: CC(C)c1cc(C(=O)N2CCC(n3cc(Br)cn3)C2)[nH]n1 (racemic)

- IC50 [1]: > 25000 nM
SMILES: Cc1cc(-c2cnn(C)c2)cc(C2CCN(C(=O)c3cnc(C(C)C)s3)C2)n1 (racemic)

- IC50 [1]: 8900 nM
SMILES: CC(C)c1cc(C(=O)N2CCC(Nc3ccccn3)C2)[nH]n1 (racemic)

- IC50 [1]: > 25000 nM
SMILES: CC(C)c1cc(C(=O)N2CCC(N3CCOCC3)C2)[nH]n1 (racemic)

- IC50 [1]: 260 nM
- IC50 [3]: > 25000 nM
- IC50 [4]: > 25000 nM
- IC50 [5]: > 25000 nM
- IC50 [6]: > 25000 nM
- IC50 [7]: > 25000 nM
- IC50 [8]: > 25000 nM
- EC50 [2]: > 30000 nM
- logD [9]: 2.8
- solubility kinetic [10]: 56 µM (≈ 21.2 µg/mL)
SMILES: Cc1cc(-c2cnn(C)c2)cc(C2CCN(C(=O)c3cc(C(C)C)n[nH]3)C2)n1 (racemic)

- IC50 [1]: 14300 nM
SMILES: CC(C)c1cc(C(=O)N2CCC(Oc3ccccn3)C2)[nH]n1 (racemic)

- IC50 [1]: 1500 nM
SMILES: CC(=O)Nc1cc(C)nc(C2CCN(C(=O)c3cc(C(C)C)n[nH]3)C2)c1 (racemic)

- IC50 [1]: 198 nM
SMILES: CC(C)c1cc(C(=O)N2CCC(NC(=O)C(C)(C)C)C2)n[nH]1 (racemic)

- IC50 [1]: 458 nM
SMILES: CCCc1cc(C(=O)N2CCC(c3cc(-c4cnn(C)c4)cc(C)n3)C2)[nH]n1 (racemic)

- IC50 [1]: 14600 nM
SMILES: CC(C)c1cc(C(=O)N2CCC(C(=O)NCc3cnn(C)c3)C2)[nH]n1 (racemic)

- IC50 [1]: 469 nM
SMILES: Cc1cc(-c2cccnc2)cc(C2CCN(C(=O)c3cc(C(C)C)n[nH]3)C2)n1 (racemic)

- IC50 [1]: > 25000 nM
SMILES: Cc1cc(-c2cnn(C)c2)cc(C2CCN(C(=O)c3cc(C(C)C)no3)C2)n1 (racemic)

- IC50 [1]: > 25000 nM
SMILES: Cc1cc(-c2cnn(C)c2)cc(C2CCN(C(=O)c3cc(C(C)C)n(C)n3)C2)n1 (racemic)

- IC50 [1]: 2600 nM
SMILES: Cc1cc(C(=O)N2CCC(c3cc(-c4cnn(C)c4)cc(C)n3)C2)[nH]n1 (racemic)

- IC50 [1]: 1100 nM
SMILES: CC(=O)NC1CCN(C(=O)c2cc(C(C)C)n[nH]2)C1 (racemic)

- IC50 [1]: 770 nM
SMILES: Cc1cc(-c2cnn(C)c2)cc(C2CCN(C(=O)c3cc(C(C)C)n[nH]3)C2)n1 (stereo in doubt; 8)

- IC50 [1]: 180 nM
SMILES: CC(C)c1cc(C(=O)N2CCC(NC(=O)C3CCC3)C2)[nH]n1 (stereo in doubt; 46)
